Assays:
[1] = Residual total halogen (DPD) after adding sodium hypochlorite to borohydride solution; type: physicochemical; details: for Total Halogen with DMDMH: borohydride solution treated with DMDMH; for Total Halogen without DMDMH: borohydride solution, no DMDMH
Description: The remaining halogen concentration was then measured by standard DPD total halogen methodologies over time.
(§1) For comparison, the residual total halogen (as Cl2) was analyzed without the use of dimethyloldimethylhydantoin.

[2] = ORP of sodium borohydride solution over time after adding aldehyde donor; type: physicochemical
Description: Aqueous solutions containing sodium borohydride were mixed at 21° C. to obtain a solution having an initial borohydride content (as NaBH4) of 30-50 ppm, an alkalinity (as CaCO3) of 400 ppm, and a pH of 8.5-9.5. The temperature of the solution was maintained at 21° C. and the ORP of the solution was measured at specified time intervals. The procedure consisted of adding a known amount of aldehyde donor, such as dimethyloldimethylhydantoin or glyoxal, to the samples at a known molar ratio with respect to the borohydride content and following the time-dependence of the ORP.
as §1

[3] = 2 min after addition of sodium hypochlorite
[4] = 43 min after addition of sodium hypochlorite

Total Halogen without DMDMH [1, 3] [ppm as Cl2]	Total Halogen without DMDMH [1, 4] [ppm as Cl2]	SMILES	Total Halogen with DMDMH [1, 3] [ppm as Cl2]	Total Halogen with DMDMH [1, 4] [ppm as Cl2]	ORP - DMDMH treated [2, 3] [mV]	ORP - DMDMH treated [2, 4] [mV]
		CC1(C)C(=O)N(CO)C(=O)N1CO [DMDMH, dimethyloldimethylhydantoin]	1.59	1.33	−251	−77
<0.1	<0.1	OCl [sodium hypochlorite, reference compound]				

— US8808500B2, “Method for the use of oxidants for microbial control under reducing conditions” (Lonza Inc., priority 2011, dated 2014)
